Test results published in patent US20260265265A1, “NOVEL BENZIMIDAZOLONE DERIVATIVE COMPOUND AS AUTOTAXIN INHIBITOR” (LG CHEM, LTD., priority 2023, published 2026).

Molecular target: T1, Recombinant Human ENPP-2/Autotaxin (Homo sapiens, UniProt Q13822)
T1 construct: purchased R&D systems 5255-EN
Assay: LysoPLD activity measurement (autotaxin enzyme inhibition, choline release, TOOS reagent)
Type: biochemical
Settings: LysoPLD inhibitory activity; substrate 14:0 LysoPC; absorbance at 555 nm
Procedure, shortened: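 Enzyme and compound were preincubated for 30 min before adding 14:0 LysoPC substrate, diluted to 300 μM, for 90 minutes at 37° C. The choline product was quantified colorimetrically with TOOS reagent. Wells without compound held 1% DMSO.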

| Structure (SMILES) | IC50 [µM] |
| --- | --- |
| CCCn1cc(-n2c(=O)n(Cc3cccc(C(=O)O)c3F)c3ccc(Cl)c(F)c32)cn1 [Example 92, 3-((5-chloro-4-fluoro-2-oxo-3-(1-propyl-1H-pyrazol-4-yl)-2,3-dihydro-1H-benzo[d]imidazol-1-yl)methyl)-2-fluorobenzoic acid] | 0.01 to 0.1 |
| CC1(C)CC=C(c2ccc(-n3c(=O)n(Cc4cccc(C(=O)O)c4F)c4ccc(Cl)cc43)cc2)CC1 [Example 112, 3-((5-chloro-3-(4′,4′-dimethyl-2′,3′,4′,5′-tetrahydro-[1,1′-biphenyl]-4-yl)-2-oxo-2,3-dihydro-1H-benzo[d]imidazol-1-yl)methyl)-2-fluorobenzoic acid] | 0.1 to 1 |
| O=C(O)c1cccc(C2(n3c(=O)n(-c4ccc(CC(=O)N5CC(O)C5)cc4)c4cc(Cl)ccc43)CC2)c1 [Example 174, 3-(1-(5-chloro-3-(4-(2-(3-hydroxyazetidin-1-yl)-2-oxoethyl)phenyl)-2-oxo-2,3-dihydro-1H-benzo[d]imidazol-1-yl)cyclopropyl)benzoic acid] | < 0.01 |
| CN(C)c1ccc(-n2c(=O)n(Cc3cccc(C(=O)O)c3)c3ccc(Cl)c(F)c32)cc1 [Example 25, 3-((5-chloro-3-(4-(dimethylamino)phenyl)-4-fluoro-2-oxo-2,3-dihydro-1H-benzo[d]imidazol-1-yl)methyl)benzoic acid] | 0.01 to 0.1 |
| O=C(O)c1cccc(Cn2c(=O)n(-c3ccc(C(=O)N4CCOCC4)cc3)c3cc(Cl)ccc32)c1 [Example 44, 3-((5-chloro-3-(4-(morpholine-4-carbonyl)phenyl)-2-oxo-2,3-dihydro-1H-benzo[d]imidazol-1-yl)methyl)benzoic acid] | 0.01 to 0.1 |
| O=C(O)c1cccc(Cn2c(=O)n(-c3ccc(N4CCC(F)(F)CC4)cc3)c3cc(Cl)ccc32)c1 [Example 94, 3-((5-chloro-3-(4-(4,4-difluoropiperidin-1-yl)phenyl)-2-oxo-2,3-dihydro-1H-benzo[d]imidazol-1-yl)methyl)benzoic acid] | 0.01 to 0.1 |
| O=C(O)c1cccc(C2(n3c(=O)n(-c4ccc(C(=O)N5CC(O)C5)cc4)c4cc(Cl)ccc43)CC2)c1F [Example 134, 3-(1-(5-chloro-3-(4-(3-hydroxyazetidine-1-carbonyl)phenyl)-2-oxo-2,3-dihydro-1H-benzo[d]imidazol-1-yl)cyclopropyl)-2-fluorobenzoic acid] | < 0.01 |

Continued, values first:

| IC50 [µM] | Structure (SMILES) |
| --- | --- |
| < 0.01 | O=C(O)c1cccc(C2(n3c(=O)n(-c4ccc(C5(CO)CCC5)cc4)c4cc(Cl)ccc43)CC2)c1 [Example 239, 3-(1-(5-chloro-3-(4-(1-(hydroxymethyl)cyclobutyl)phenyl)-2-oxo-2,3-dihydro-1H-benzo[d]imidazol-1-yl)cyclopropyl)benzoic acid] |
| < 0.01 | CS(=O)(=O)c1ccc(-n2c(=O)n(C3(c4cccc(C(=O)O)c4)CC3)c3ccc(Cl)cc32)cc1 [Example 180, 3-(1-(5-chloro-3-(4-(methylsulfonyl)phenyl)-2-oxo-2,3-dihydro-1H-benzo[d]imidazol-1-yl)cyclopropyl)benzoic acid] |
| 0.01 to 0.1 | O=C(O)c1cccc(C2(n3c(=O)n(-c4ccc(S(=O)(=O)NCC5CCC5)cc4)c4cc(Cl)ccc43)CC2)c1 [Example 213, 3-(1-(5-chloro-3-(4-(N-(cyclobutylmethyl)sulfamoyl)phenyl)-2-oxo-2,3-dihydro-1H-benzo[d]imidazol-1-yl)cyclopropyl)benzoic acid] |
| < 0.01 | O=C(O)c1cccc(C2(n3c(=O)n(-c4ccc(-c5nnc(C6CCCC6)o5)cc4)c4cc(Cl)ccc43)CC2)c1 [Example 266, 3-(1-(5-chloro-3-(4-(5-cyclopentyl-1,3,4-oxadiazol-2-yl)phenyl)-2-oxo-2,3-dihydro-1H-benzo[d]imidazol-1-yl)cyclopropyl)benzoic acid] |
| 0.01 to 0.1 | CC1(C)OCc2cc(-n3c(=O)n(C4(c5cccc(C(=O)O)c5F)CC4)c4ccc(Cl)cc43)ccc21 [Example 253, 3-(1-(5-chloro-3-(1,1-dimethyl-1,3-dihydroisobenzofuran-5-yl)-2-oxo-2,3-dihydro-1H-benzo[d]imidazol-1-yl)cyclopropyl)-2-fluorobenzoic acid] |
